According to PubChem BioAssay (NCI):
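In this assay, cells in 96-well plates receive the compound at five concentrations for 48 hours. Endpoints are linearly interpolated between the surrounding concentrations. At the TGI there is no net growth.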 Where a SMILES comes first, the peptide text is derived from it. [ ]: non-standard residue; d: D form. The star is where a group is joined. NMeAc5c = CNC1(C(=O)O)CCCC1; Boc = CC(C)(C)OC(=O)*; OBn = c1ccc(CO*)cc1

Key:
Test in all cases: inhibition of tumour cell growth, NCI panel, 48 h
[1] = test system: K-562 leukemia
[2] = test system: RXF 393 renal
[3] = test system: A549 NSCLC
[4] = test system: OVCAR-8 ovarian
[5] = test system: SK-MEL-5 melanoma
[6] = test system: MALME-3M melanoma
[7] = test system: UACC-257 melanoma
[8] = test system: SNB-19 CNS
[9] = test system: ACHN renal
[10] = test system: HL-60(TB) leukemia

| Compound | TGI [1] | TGI [2] | TGI [3] | TGI [4] | TGI [5] | TGI [6] | TGI [7] | TGI [8] | TGI [9] | TGI [10] |
| --- | --- | --- | --- | --- | --- | --- | --- | --- | --- | --- |
| COC(=O)c1cc(=O)nc2sc3cccc(C)c3n12 | > 100 µM | > 100 µM | > 100 µM | 49.2 µM | > 100 µM | 70.1 µM | > 100 µM | > 100 µM | 42.8 µM | 62.6 µM |
| CCOC(=O)C1(C/C=C/CBr)Cc2ccccc2C1=O (stereo not given) | 4.84 µM | 6.32 µM | > 35.7 µM | 7.34 µM | 7.66 µM | 7.43 µM | 22.6 µM | 37.2 µM | 7.19 µM | > 100 µM |
| CN1CCc2cc(N)cc3c2C1Cc1ccc(O)c(O)c1-3 (stereo not given) | 85.3 µM | > 100 µM | > 100 µM | > 100 µM | 46.5 µM | 88.2 µM | 52.9 µM | > 100 µM | 58.4 µM | 98.7 µM |
| COc1cc2c(c(OC)c1OC)C(=O)[C@@H]1[C@H]2N1C(N)=O | > 100 µM | > 100 µM | > 100 µM | > 100 µM | > 100 µM | > 100 µM | > 100 µM | > 100 µM | > 100 µM | > 100 µM |
| CC(C)(C)N1CSC(=S)N(Cc2ccco2)C1 | 13.3 µM | 19.4 µM | 24.4 µM | 5.63 µM | 14 µM | 16.6 µM | 25 µM | 14.5 µM | 13.7 µM | 4.03 µM |
| Cc1ccccc1C(=O)N1CCc2c([nH]c3ccccc23)C1 | 62.5 µM | 43.1 µM | > 100 µM | > 100 µM | 29.6 µM | 81.5 µM | 58.2 µM | > 100 µM | > 100 µM | 39.2 µM |
| COC(=O)C([C@H](NC1(c2ccccc2)c2ccccc2-c2ccccc21)C(=O)OC)N(NC(=O)OCc1ccccc1)C(=O)OCc1ccccc1 (mixture of isomers) | > 100 µM | > 100 µM | > 100 µM | > 100 µM | > 100 µM | > 100 µM | > 100 µM | > 100 µM | > 100 µM | > 100 µM |
| Cc1ccc([N+](=O)[O-])cc1NC1=NCCO1 | > 100 µM | > 100 µM | > 100 µM | > 100 µM | > 100 µM | > 100 µM | > 100 µM | > 100 µM | > 100 µM | > 100 µM |
| CC(=O)NC(Cc1ccc(O)cc1)C(=O)O (stereo not given) | > 100 µM | > 100 µM | > 100 µM | > 100 µM | > 100 µM | > 100 µM | > 100 µM | > 100 µM | > 100 µM | > 100 µM |
| C1CN(c2nc3c(nnc4nc(N5CCOCC5)sc43)s2)CCO1 | > 100 µM | > 100 µM | > 100 µM | > 100 µM | > 100 µM | > 100 µM | > 100 µM | > 100 µM | > 100 µM | > 100 µM |
| COc1cc(Br)cc2cc(-c3cn4ccsc4n3)c(=O)oc12 | > 100 µM | 75.7 µM | > 100 µM | > 100 µM | 49.9 µM | > 100 µM | > 100 µM | > 100 µM | > 100 µM | > 100 µM |
| c1ccc(N=c2sc3ccccc3nc2Nc2ccccc2)cc1 | > 100 µM | > 100 µM | > 100 µM | > 100 µM | > 100 µM | > 100 µM | > 100 µM | > 100 µM | > 100 µM | > 100 µM |
| Nn1c(-c2ccccc2)nn(C(=O)c2ccccc2)c1=O | > 100 µM | > 100 µM | > 100 µM | > 100 µM | > 100 µM | > 100 µM | > 100 µM | > 100 µM | > 100 µM | > 100 µM |
| CCCCC#C[I+]c1ccccc1 | 40.3 µM | 36.9 µM | 33.8 µM | 32.5 µM | 31.1 µM | 28.2 µM | 30.8 µM | 30.9 µM | 30.9 µM | 40.1 µM |
| Clc1ccccc1C(SCc1ccccc1)SCc1ccccc1 | > 100 µM | > 100 µM | > 100 µM | > 100 µM | > 100 µM | > 100 µM | > 100 µM | > 100 µM | > 100 µM | > 100 µM |
| N#Cc1c(N2CCCC2)ncn(-c2ccccc2)c1=O | > 100 µM | > 100 µM | > 100 µM | > 100 µM | > 100 µM | > 100 µM | > 100 µM | > 100 µM | > 100 µM | > 100 µM |
| C=CCN1C[C@H](C)N([C@H](c2ccc(C(=O)NC(CC)CC)cc2)c2cccc(OC)c2)C[C@H]1C | > 100 µM | > 100 µM | > 100 µM | > 100 µM | 32.4 µM | 43.5 µM | 70.7 µM | > 100 µM | > 100 µM | 32.4 µM |

| Compound | TGI [1] | TGI [2] | TGI [3] | TGI [4] | TGI [5] | TGI [6] | TGI [7] | TGI [8] | TGI [9] | TGI [10] |
| --- | --- | --- | --- | --- | --- | --- | --- | --- | --- | --- |
| O=[N+]([O-])c1ccc2c(c1)c(OCc1ccccc1)nn2Cc1ccccc1 | > 100 µM | > 100 µM | > 100 µM | > 100 µM | > 100 µM | > 100 µM | > 100 µM | > 100 µM | > 100 µM | > 100 µM |
| CC(C)(C)OC(=O)NCCCCC1NC(=O)[C@@H]2Cc3c([nH]c4ccccc34)C(C3CCCCC3)N2C1=O (stereo not given in full) | > 100 µM | 25.6 µM | > 100 µM | > 100 µM | > 100 µM | > 100 µM | > 100 µM | > 100 µM | > 100 µM | > 100 µM |
| CC(=O)O[C@@H]1[C@H](C(C)C)[C@@H](OC(C)=O)C/C(C)=C/CC[C@]2(C)O[C@@H]12 | > 100 µM | > 100 µM | > 100 µM | > 100 µM | > 100 µM | > 100 µM | > 100 µM | > 100 µM | > 100 µM | > 100 µM |
| O=C1CC(NC(=O)C(F)(F)F)c2c(Br)sc(N3CCNCC3)c21 (stereo not given) | > 100 µM | > 100 µM | > 100 µM | > 100 µM | > 100 µM | > 100 µM | > 100 µM | > 100 µM | > 100 µM | > 100 µM |
| C#CCNC(CS)C(=O)O (stereo not given) | > 100 µM | > 100 µM | > 100 µM | > 100 µM | > 100 µM | > 100 µM | > 100 µM | > 100 µM | > 100 µM | > 100 µM |
| COC(CCC[N+](C)(C)C)CC[N+](C)(C)C (stereo not given) | > 100 µM | > 100 µM | > 100 µM | > 100 µM | > 100 µM | > 100 µM | > 100 µM | > 100 µM | > 100 µM | > 100 µM |
| CCCCCCc1cc2cc(-c3csc(CC#N)n3)c(=O)oc2cc1O | > 100 µM | > 89.2 µM | > 100 µM | > 100 µM | > 100 µM | > 100 µM | > 100 µM | > 100 µM | > 100 µM | > 66.9 µM |
| CN(C(=O)C(Cc1ccccc1)NC(=O)OC(C)(C)C)C1(C(=O)NC(Cc2ccccc2)C(=O)OCc2ccccc2)CCCC1 (stereo not drawn) (Boc-Phe-[NMeAc5c]-Phe-OBn; configuration not given here) | 97 µM | > 100 µM | > 100 µM | > 100 µM | > 100 µM | > 100 µM | > 100 µM | > 100 µM | > 100 µM | 47.5 µM |
| O=C1/C(=C\c2ccccc2)C(NC2CCCCC2)c2ccccc21 (stereo not given) | 5.07 µM | 2.93 µM | 16.4 µM | 6.09 µM | 6.65 µM | 3.01 µM | 2.69 µM | 22.5 µM | 2.34 µM | 3.02 µM |
| CCCN(C(=O)c1ccccc1)C(C#N)c1ccc(C(C#N)N(CCC)C(=O)c2ccccc2)cc1 (stereo not given) | > 100 µM | > 100 µM | > 100 µM | > 100 µM | > 100 µM | > 100 µM | > 100 µM | 74.9 µM | > 100 µM | > 100 µM |
| Cc1nc2n(c1/C=C1/C(=O)Nc3cccc(Cl)c31)CCS2 | > 100 µM | 50.6 µM | > 100 µM | 88.4 µM | > 100 µM | > 100 µM | > 100 µM | 62.5 µM | > 100 µM | > 100 µM |
| Nc1nc(Cl)cc(NCC2(CO)CC(=O)C2)n1 | > 100 µM | > 100 µM | > 100 µM | > 100 µM | > 100 µM | > 100 µM | > 100 µM | > 100 µM | > 100 µM | > 100 µM |
| COC(=O)c1c(C)cccc1C1CN=NC12Cc1ccc(C)cc1C2=O (stereo not given) | > 100 µM | > 100 µM | > 100 µM | > 100 µM | 44.1 µM | > 100 µM | > 100 µM | > 100 µM | > 100 µM | 47.1 µM |
| C=C1C(=O)O[C@@H]2C(=O)[C@@H](C)CCC/C(C)=C/CC[C@@]3(C)O[C@@H]3C[C@@H]12 | 34.8 µM | 17.1 µM | > 100 µM | > 100 µM | 56.7 µM | > 100 µM | > 100 µM | > 100 µM | > 100 µM | 33.4 µM |
| CN(C)C(=O)O/N=C1/C(c2c(O)[nH]c3ccccc23)=Nc2ccccc21 | > 100 µM | 14.1 µM | > 100 µM | 66.1 µM | > 100 µM | 30 µM | > 100 µM | 39.1 µM | > 100 µM | > 100 µM |
| O=C1/C(=C/c2ccccc2)N=C2Sc3c(nc[nH]c3=O)N12 | 83.5 µM | > 100 µM | > 100 µM | > 100 µM | > 100 µM | > 100 µM | > 100 µM | > 100 µM | > 100 µM | > 100 µM |
